Data published in US20030144295A1, “Treatment for ischemic stroke” (YAMANOUCHI PHARMACEUTICAL CO., LTD., priority 2001, published 2003).

Legend:
[1] = test system: rat embolic stroke models; assay: Infarct volume (TTC staining) in rat embolic stroke models, Example 1; type: in vivo, rat (male Sprague-Dawley); settings: 24 hours after blood clot injection; administration started 2 hours after clot; alteplase 10 mg/kg i.v., compound A 20 mg/kg/hour i.v. for 4 hours; n=8; control 361.2±20.9
Method: FIG. 1: Effect of a combined use of compound A with alteplase on infarct volume in rat embolic stroke models. Administration of compound A (20 mg/kg/hr; i.v. for 4 hours) and alteplase (10 mg/kg; i.v.; 10% of the total dose was subjected to an intravenous bolus administration while the remainder (90%) was subjected to an intravenous administration continuously over 1 hour) was initiated 2 hours after the injection of blood clot. After 24 hours from the infusion of the blood clot, the brain was excised, sliced and stained with TTC. The data in the drawing show a mean value±standard error (n=8). The symbol * means a statistically significant difference from a control group or an alteplase-administered group (*p<0.05; Dunnett's test or t-test). […]
(§1) Evaluation of formation of cerebral embolism by injection of blood clot was carried out using a laser Doppler flowmetry (FloC1; Omegawave) and the cerebral blood flow decreased to a level of 30% or less of the blood clot value immediately after ischemia was taken as a positive evidence of embolism formation. […] The cerebral blood flow was monitored until 30 minutes after infusion of the blood clot and the blood flow of 30 minutes after ischemia was confirmed to-remain 50% or less than the value prior to the injection of the blood clot. […]

[2] = test system: rat embolic stroke models; assay: Neurological symptoms (Bederson score) in rat embolic stroke models, Example 1; type: in vivo, rat (male Sprague-Dawley); settings: Bederson score 0-3, 24 hours after blood clot injection; administration started 2 hours after clot; alteplase 10 mg/kg i.v., compound A 20 mg/kg/hour for 4 hours; n=8; control 2.5
Method: FIG. 2: Effect of a combined use of compound A with alteplase on neurological symptoms in rat embolic stroke models. Administration of zonampanel (20 mg/kg/hr; i.v. for 4 hours) and alteplase (10 mg/kg; i.v.; 10% of the total dose was subjected to an intravenous bolus administration while the remainder (90%) was subjected to an intravenous administration continuously over 1 hour) was initiated 2 hours after the injection of blood clot. After 24 hours from the injection of the blood clot, the neurological symptoms were observed. Data in the drawing show the data derived from each animal (n=8). The symbol * means a statistically significant difference from a control group or an alteplase-administered group (*p<0.05; Steel's test or Wilcoxon-test). […]
as §1

AMPA receptor = settings: cited from earlier work
[3] = cited from earlier work

Row | Compound | infarct volume (mean value±standard error) [1] [mm^3] | neurological symptom score (median value) [2] | AMPA binding activity (AMPA receptor) | solubility in water [3]
1 | Alteplase [reference compound] | 202.7±49.3 |  |  | 
2 | O=C(O)Cn1c(=O)c(=O)[nH]c2cc([N+](=O)[O-])c(-n3ccnc3)cc21 [compound A, [7-(1H-imidazol-1-yl)-6-nitro-2,3-dioxo-3,4-dihydroquinoxalin-1(2H)-yl]acetic acid] | 194.6±50.6 | 2 | strong and selective | high
